Experimental data taken from paper PMC10143423, “Endoplasmic Reticulum-Targeting Two-Photon Fluorescent Probe for CYP1A Activity and Its Imaging Application in Endoplasmic Reticulum Stress” (Molecules, 2023).
One block for each molecule: values may come before it.

Assays:
A549 cells [1] = assay: CYP1A activity imaged by ERNM in DTT-induced ER stress cell model; assay type: cell-based; settings: DTT 2.5 mM for 0, 1, 2, 4 h, imaged with ERNM 25 μM
Protocol: (§1) A549 cells were grown in RPMI-1640 culture medium (containing 10% FBS). A549 cells were seeded and incubated at 37 °C overnight. Then, A549 cells divided into different experimental groups were treated with DTT (dithiothreitol, the in-system concentration of DTT in the incubation system is 2.5 mM) for 0, 1, 2, and 4 h. The adherent cells were washed, and ERNM was added into the cell culture media (the in-system concentration of ERNM in the incubation system is 25 μM) and incubated for 60 min. Then, the cells were rinsed with PBS for at least 3 times to remove the extracellular probe. The cell images were obtained using confocal microscope (Olympus, FV1000), and the excitation wavelength was set at 800 nm and fluorescent emission windows of 520–560 nm.

CYP1A = assay: Inhibition of ERNM O-demethylation in human liver microsomes by selective CYP inhibitors; assay type: biochemical; settings: inhibitor 2.5 μM, ERNM 10 μM, HLM, fluorescence 558 nm
Protocol: The incubation mixture is 200 μL. […] Inhibition by TEPA for CYP2B6 were examined by adding ERNM after pre-incubation with NADPH-generating system at 37 °C for 30 min. […] In addition, the residual activity of samples was calculated by the percentage of fluorescence signal for the chemical inhibition group to the control group, with the absence of specific inhibitors. Data were analyzed using GraphPad Prism 8.0 (GraphPad Software, Inc., San Diego, CA, USA).

CYP1A1 = biological target: T1, CYP1A1 (Homo sapiens, UniProt P04798); assay: ERNM O-demethylation enzyme kinetics in recombinant CYP1A1; assay type: biochemical
T1 construct: purchased BD Biosciences (Woburn, MA, USA)
T1 sequence (P04798 1-512): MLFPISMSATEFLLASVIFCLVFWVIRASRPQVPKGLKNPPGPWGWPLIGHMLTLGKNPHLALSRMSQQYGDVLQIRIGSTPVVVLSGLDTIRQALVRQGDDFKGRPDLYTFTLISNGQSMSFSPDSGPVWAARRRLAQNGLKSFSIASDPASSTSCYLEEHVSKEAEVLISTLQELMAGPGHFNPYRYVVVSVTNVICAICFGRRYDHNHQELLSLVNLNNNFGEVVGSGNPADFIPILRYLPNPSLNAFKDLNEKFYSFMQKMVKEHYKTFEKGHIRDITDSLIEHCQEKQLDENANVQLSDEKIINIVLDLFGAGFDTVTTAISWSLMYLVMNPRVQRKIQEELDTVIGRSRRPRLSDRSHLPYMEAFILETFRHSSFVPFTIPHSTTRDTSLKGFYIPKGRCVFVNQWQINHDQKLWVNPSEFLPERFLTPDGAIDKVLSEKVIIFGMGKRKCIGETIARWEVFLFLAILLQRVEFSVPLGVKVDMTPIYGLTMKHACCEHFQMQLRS
Protocol: (§2) The incubation sample consisted of NADPH-generating system (including NADP^+, magnesium chloride, glucose-6-phosphate, and glucose-6-phosphate dehydrogenase), and human liver microsomes or recombinant human CYP enzyme in potassium phosphate buffer (100 mM, pH 7.4). The total volume of the incubation mixture is 200 μL. Fluorescent substrate was dissolved in DMSO, and was pre-diluted to the working concentrations. If necessary, blank samples without NADPH or without enzymes will be set up as negative controls. The incubation reaction was initiated by adding NADP^+ after pre-incubation at 37 °C for 3 min. In addition, ice acetonitrile (100 µL) was added into the incubation samples for terminating the reaction progress. Briefly, CYP1A1 (5 nM) or CYP1A2 (5 nM) were incubated with ERNM (1, 5, 10, 15, 50, 100, 200 μM) in 200 μL of the incubation mixture in the presence of NADPH-generating systems. After incubation for 30 min, the dealkylated metabolite was measured by quantifying the intensity of fluorescence signal at 558 nm that was excited at 450 nm. Data were analyzed using GraphPad Prism 8.0 (GraphPad Software, Inc., San Diego, CA, USA).

CYP1A2 = biological target: T2, CYP1A2 (Homo sapiens, UniProt P05177); assay: ERNM O-demethylation enzyme kinetics in recombinant CYP1A2; assay type: biochemical
T2 construct: purchased BD Biosciences (Woburn, MA, USA)
T2 sequence (P05177 1-516): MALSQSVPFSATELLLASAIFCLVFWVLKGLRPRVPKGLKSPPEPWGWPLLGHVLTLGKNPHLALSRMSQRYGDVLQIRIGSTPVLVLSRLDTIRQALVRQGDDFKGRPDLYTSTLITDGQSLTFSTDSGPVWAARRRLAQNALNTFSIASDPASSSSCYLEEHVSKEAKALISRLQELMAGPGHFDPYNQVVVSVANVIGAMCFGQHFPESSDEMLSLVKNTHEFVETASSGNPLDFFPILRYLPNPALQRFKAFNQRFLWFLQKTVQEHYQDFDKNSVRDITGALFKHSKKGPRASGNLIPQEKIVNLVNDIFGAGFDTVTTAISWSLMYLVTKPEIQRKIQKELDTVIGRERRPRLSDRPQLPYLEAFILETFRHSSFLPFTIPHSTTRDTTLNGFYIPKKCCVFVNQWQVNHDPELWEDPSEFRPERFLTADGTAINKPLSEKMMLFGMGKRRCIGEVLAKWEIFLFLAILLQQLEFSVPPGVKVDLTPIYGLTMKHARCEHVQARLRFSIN
Protocol: as §2

[2] = tested on: recombinant human CYP isoenzymes; assay: Fluorescence response of ERNM toward various recombinant human CYPs; assay type: biochemical; settings: CYPs 15 nM, ERNM 10 μM, 30 min, 37 °C, fluorescence 558 nm
Protocol: The incubation sample consisted of NADPH-generating system (including NADP^+, magnesium chloride, glucose-6-phosphate, and glucose-6-phosphate dehydrogenase), and human liver microsomes or recombinant human CYP enzyme in potassium phosphate buffer (100 mM, pH 7.4). The total volume of the incubation mixture is 200 μL. Fluorescent substrate was dissolved in DMSO, and was pre-diluted to the working concentrations. If necessary, blank samples without NADPH or without enzymes will be set up as negative controls. The incubation reaction was initiated by adding NADP^+ after pre-incubation at 37 °C for 3 min. […]
To reveal the enzyme specificity for ERNM, the human recombinant CYP enzymes including CYP1A1, CYP1A2, CYP1B1, CYP2A6, CYP2A13, CYP2B6, CYP2C8, CYP2C9, CYP2C18, CYP2C19, CYP2D6, CYP2E1, CYP2J2, CYP3A4, CYP3A5, CYP4A11, CYP4F2, CYP4F3, and CYP4F12 (15 nM) were incubated with ERNM (the in-system concentration of ERNM in the incubation system is 10 μM) in 200 μL of the incubation mixture in the presence of NADPH-generating systems. After incubation for 30 min at 37 °C, the dealkylated metabolite was measured by quantifying the intensity of fluorescence signal at 558 nm that was excited at 450 nm. Data were analyzed using GraphPad Prism 8.0 (GraphPad Software, Inc., San Diego, CA, USA).

A549 cells [3] = assay: Colocalization of ERNM with ER-Tracker in living cells; assay type: cell-based; settings: co-incubated with ER-Tracker Red, two-photon excitation
Protocol: The systematic evaluation of ERNM confirmed its application in complex biosystems, subsequent work is related to the investigation of the subcellular localization of ERNM in living cells. Briefly, ERNM was co-incubated with a commercial ER-Tracker (red) in A549 cells, and then imaged under two-photon (ERNM) and single-photon (ER-Tracker) excitation conditions using confocal fluorescence microscope.
as §1

[4] = substrate: COc1ccc2c3c(cccc13)C(=O)N(CCNS(=O)(=O)c1ccc(C)cc1)C2=O; assay: ERNM O-demethylation enzyme kinetics in recombinant CYP1A2; assay type: biochemical, human; settings: other: CYP1A2 5 nM, ERNM 1-200 μM, 30 min, fluorescence 558 nm; pH 7.4; 37.0 °C
Protocol: as §2

[5] = substrate: COc1ccc2c3c(cccc13)C(=O)N(CCNS(=O)(=O)c1ccc(C)cc1)C2=O; assay: ERNM O-demethylation enzyme kinetics in recombinant CYP1A1; assay type: biochemical, human; settings: other: CYP1A1 5 nM, ERNM 1-200 μM, 30 min, fluorescence 558 nm; pH 7.4; 37.0 °C
Protocol: as §2

[6] = substrate inhibition constant, Table S1

Molecule: O[C@@H](CS)[C@@H](O)CS (racemic) [DTT, dithiothreitol]
Time at which CYP1A activity reached the peak (A549 cells [1]): 2 h

B1: CYP1A2 (Homo sapiens) (protein)
chain: T2 sequence (P05177 1-516)
notes: purchased BD Biosciences (Woburn, MA, USA)
Km [4]: 2.9 ± 0.5 µM | kcat [4]: 3.32 ± 0.15 nmol/min/nmol P450

B2: CYP1A1 (Homo sapiens) (protein)
chain: T1 sequence (P04798 1-512)
notes: as for B1
Km [5]: 1.0 ± 0.1 µM | kcat [5]: 1.92 ± 0.04 nmol/min/nmol P450

More lines, main results first:

Effect on generation of the ERNM fluorescence signal in human liver microsomes (CYP1A): sufficiently suppressed
Molecule: O=c1cc(-c2ccccc2)oc2c1ccc1ccccc12 [α-naphthoflavone]

Vmax for demethylation catalyzed by CYP1A1 (CYP1A1; CYP1A1 5 nM, ERNM 1-200 μM, 30 min): 1.92 ± 0.04 nmol/min/nmol P450 | Kinetic behavior of CYP1A1 mediated demethylation (CYP1A1; kinetic plot, Figure S5): kinetics of substrate inhibition | Ksi of ERNM O-demethylation in CYP1A1 (CYP1A1; [6]): 611.3 ± 93.8 µM | Vmax for demethylation catalyzed by CYP1A2 (CYP1A2; CYP1A2 5 nM, ERNM 1-200 μM, 30 min): 3.32 ± 0.15 nmol/min/nmol P450 | Kinetic behavior of CYP1A2 mediated demethylation (CYP1A2; kinetic plot, Figure S5): kinetics of substrate inhibition | Ksi of ERNM O-demethylation in CYP1A2 (CYP1A2; [6]): 281.2 ± 50.2 µM
Molecule: COc1ccc2c3c(cccc13)C(=O)N(CCNS(=O)(=O)c1ccc(C)cc1)C2=O [ERNM]
Selectivity of fluorescence response among CYP isoenzymes [2]: CYP1A1/1A2 mediated the generation of fluorescence signals at 558 nm over other CYP isoenzymes | Subcellular localization (overlap with ER-Tracker) (A549 cells [3]): exclusively target the ER
